# According to ChEMBL document CHEMBL3407375, “Substituted pyrrolidin-2-ones: Centrally acting orexin receptor antagonists promoting sleep. Part 2” (Bioorg Med Chem Lett, 2015):
# Legend:
# Cytochrome P450 3A4 [1] = target: T1, Cytochrome P450 3A4 (Homo sapiens, UniProt P08684); test: Inhibition of CYP3A4 (unknown origin) using testosterone as marker substrate; type: ADME
# [2] = target: Orexin/Hypocretin receptor type 1 (Homo sapiens, UniProt O43613); test: Antagonist activity at human orexin 1 receptor expressed in CHO cells assessed as inhibition of orexin-A-induced calcium mobilization by FLIPR assay; type: functional, cell-based
# [3] = Intrinsic metabolic clearance in human liver microsomes at 1 uM; type: ADME; settings: read-out: CLH
# [4] = Ratio of drug level in brain to plasma in Wistar rat at 100 mg/kg, po afer 3 hrs; type: ADME, organism-based; design: dose 100 mg/kg, route oral; settings: read-out: BPR
# [5] = Drug level in Wistar rat brain measured per gram of tissue at 100 mg/kg, po after 3 hrs; type: ADME, organism-based; design: dose 100 mg/kg, route oral; settings: read-out: Drug uptake
# [6] = Drug level in Wistar rat plasma at 100 mg/kg, po after 3 hrs; type: ADME, organism-based; design: dose 100 mg/kg, route oral
# [7] = Plasma protein binding in Wistar rat at 100 mg/kg, po after 3 hrs; type: ADME, organism-based; design: dose 100 mg/kg, route oral; settings: read-out: PPB
# Orexin receptor type 2 = Orexin receptor type 2 (Homo sapiens, UniProt O43614); test: Antagonist activity at human orexin 2 receptor expressed in CHO cells assessed as inhibition of orexin-A-induced calcium mobilization by FLIPR assay; type: functional, cell-based
# Rattus norvegicus [8] = test: Induction of sleep in Wistar rat assessed as decrease in time spent in active wake at 100 mg/kg, po after 12 hrs relative to control; type: functional
# Cytochrome P450 2D6 [9] = target: T2, Cytochrome P450 2D6 (Homo sapiens, UniProt P10635); test: Inhibition of CYP2D6 (unknown origin); type: ADME
# MDR1 [10] = test: Passive apparent permeability from basolateral to apical side in MDCK cells expressing human MDR1; type: ADME, cell-based, Canis lupus familiaris; settings: dog
# Cytochrome P450 3A4 [11] = target: T1, Cytochrome P450 3A4; test: Time dependent inhibition of CYP3A4 (unknown origin); type: ADME
# Cytochrome P450 2D6 [12] = target: T2, Cytochrome P450 2D6; test: Time dependent inhibition of CYP2D6 (unknown origin); type: ADME
# MDR1 [13] = test: Passive apparent permeability from apical to basolateral side in MDCK cells expressing human MDR1; type: ADME, cell-based, Canis lupus familiaris; settings: dog
# [14] = Intrinsic metabolic clearance in rat liver microsomes at 1 uM; type: ADME; settings: read-out: CLH
# Rattus norvegicus [15] = test: Induction of sleep in Wistar rat assessed as increase in time spent in non-REM sleep at 100 mg/kg, po after 12 hrs relative to control; type: functional
# Rattus norvegicus [16] = test: Induction of sleep in Wistar rat assessed as time spent in non-REM sleep at 100 mg/kg, po after 12 hrs (reference value: 29.8%); type: functional
# Cytochrome P450 2C9 [17] = target: T3, Cytochrome P450 2C9 (Homo sapiens, UniProt P11712); test: Inhibition of CYP2C9 (unknown origin); type: ADME
# Rattus norvegicus [18] = test: Induction of sleep in Wistar rat assessed as time spent in REM sleep at 100 mg/kg, po after 12 hrs (reference value: 6%); type: functional
# Rattus norvegicus [19] = test: Induction of sleep in Wistar rat assessed as decrease in home cage activity at 100 mg/kg, po after 12 hrs relative to control; type: functional
# Cytochrome P450 3A4 [20] = target: T1, Cytochrome P450 3A4; test: Inhibition of CYP3A4 (unknown origin); type: ADME
# Cytochrome P450 2C9 [21] = target: T3, Cytochrome P450 2C9; test: Time dependent inhibition of CYP2C9 (unknown origin); type: ADME
# Rattus norvegicus [22] = test: Induction of sleep in Wistar rat assessed as time spent in active wake at 100 mg/kg, po after 12 hrs (reference value: 44.6%); type: functional
# Rattus norvegicus [23] = test: Induction of sleep in Wistar rat assessed as increase in time spent in REM sleep at 100 mg/kg, po after 12 hrs relative to control; type: functional
# Rattus norvegicus [24] = test: Induction of sleep in Wistar rat assessed as time spent in quiet wake at 100 mg/kg, po after 12 hrs (reference value: 19.5%); type: functional
# Rattus norvegicus [25] = test: Induction of sleep in Wistar rat assessed as time spent in quiet wake at 100 mg/kg, po after 12 hrs (reference value: 32.8%); type: functional
# Rattus norvegicus [26] = test: Induction of sleep in Wistar rat assessed as time spent in active wake at 100 mg/kg, po after 12 hrs (reference value: 30%); type: functional
# Rattus norvegicus [27] = test: Induction of sleep in Wistar rat assessed as time spent in REM sleep at 100 mg/kg, po after 12 hrs (reference value: 4.7%); type: functional
# Rattus norvegicus [28] = test: Induction of sleep in Wistar rat assessed as time spent in non-REM sleep at 100 mg/kg, po after 12 hrs (reference value: 32.1%); type: functional
# T1 sequence (P08684 whole entry): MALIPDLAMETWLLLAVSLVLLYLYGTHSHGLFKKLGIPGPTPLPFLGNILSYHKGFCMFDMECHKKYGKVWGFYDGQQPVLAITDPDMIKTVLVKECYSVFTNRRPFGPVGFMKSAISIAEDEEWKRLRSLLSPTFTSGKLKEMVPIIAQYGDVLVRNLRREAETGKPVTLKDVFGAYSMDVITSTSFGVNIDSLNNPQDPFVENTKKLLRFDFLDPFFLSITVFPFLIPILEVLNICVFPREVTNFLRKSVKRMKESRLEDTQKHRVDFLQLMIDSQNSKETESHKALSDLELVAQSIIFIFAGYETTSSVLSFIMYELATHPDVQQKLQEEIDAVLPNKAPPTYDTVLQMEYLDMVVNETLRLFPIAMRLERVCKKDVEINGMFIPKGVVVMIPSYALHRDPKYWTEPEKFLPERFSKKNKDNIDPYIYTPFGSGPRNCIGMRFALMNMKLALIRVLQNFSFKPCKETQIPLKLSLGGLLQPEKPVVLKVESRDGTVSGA
# Sequence of Orexin receptor type 2 (O43614 whole entry, looked up): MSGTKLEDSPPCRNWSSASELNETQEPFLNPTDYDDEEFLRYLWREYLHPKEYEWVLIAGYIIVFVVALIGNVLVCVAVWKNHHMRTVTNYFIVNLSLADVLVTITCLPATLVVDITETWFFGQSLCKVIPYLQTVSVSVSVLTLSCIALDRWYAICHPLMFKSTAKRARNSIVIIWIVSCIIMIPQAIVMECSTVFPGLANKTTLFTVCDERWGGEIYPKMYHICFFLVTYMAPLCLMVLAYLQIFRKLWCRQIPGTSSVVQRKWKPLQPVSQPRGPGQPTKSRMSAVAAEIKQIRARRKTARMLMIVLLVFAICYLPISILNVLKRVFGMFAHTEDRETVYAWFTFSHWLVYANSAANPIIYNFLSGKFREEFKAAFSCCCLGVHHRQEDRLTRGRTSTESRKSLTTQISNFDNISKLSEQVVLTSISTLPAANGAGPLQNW
# Sequence of Orexin/Hypocretin receptor type 1 (O43613 whole entry, looked up): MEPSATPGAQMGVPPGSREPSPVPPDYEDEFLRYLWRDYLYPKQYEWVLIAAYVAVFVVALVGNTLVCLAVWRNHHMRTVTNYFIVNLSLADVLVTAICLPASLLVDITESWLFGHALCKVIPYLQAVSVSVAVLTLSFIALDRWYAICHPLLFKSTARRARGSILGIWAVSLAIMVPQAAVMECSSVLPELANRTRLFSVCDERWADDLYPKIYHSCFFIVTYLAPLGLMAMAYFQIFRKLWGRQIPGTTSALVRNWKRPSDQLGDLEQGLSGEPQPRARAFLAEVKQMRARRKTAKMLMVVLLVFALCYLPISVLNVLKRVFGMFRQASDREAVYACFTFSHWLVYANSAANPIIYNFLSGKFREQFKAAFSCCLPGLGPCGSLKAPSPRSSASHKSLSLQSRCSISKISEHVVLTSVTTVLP
# T2 sequence (P10635 whole entry): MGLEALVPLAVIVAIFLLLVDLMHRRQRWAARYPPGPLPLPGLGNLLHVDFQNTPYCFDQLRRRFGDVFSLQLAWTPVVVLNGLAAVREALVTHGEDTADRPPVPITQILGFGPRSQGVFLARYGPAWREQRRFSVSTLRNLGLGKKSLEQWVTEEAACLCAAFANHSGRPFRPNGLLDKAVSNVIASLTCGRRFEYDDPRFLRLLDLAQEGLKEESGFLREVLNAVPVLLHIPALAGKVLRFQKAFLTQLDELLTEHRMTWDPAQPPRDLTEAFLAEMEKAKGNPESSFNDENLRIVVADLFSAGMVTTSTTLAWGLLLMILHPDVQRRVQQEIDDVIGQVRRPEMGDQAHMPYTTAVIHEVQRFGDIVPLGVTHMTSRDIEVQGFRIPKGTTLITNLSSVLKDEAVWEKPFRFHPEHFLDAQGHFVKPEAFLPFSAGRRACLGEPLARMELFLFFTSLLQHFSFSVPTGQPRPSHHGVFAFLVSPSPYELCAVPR
# T3 sequence (P11712 whole entry): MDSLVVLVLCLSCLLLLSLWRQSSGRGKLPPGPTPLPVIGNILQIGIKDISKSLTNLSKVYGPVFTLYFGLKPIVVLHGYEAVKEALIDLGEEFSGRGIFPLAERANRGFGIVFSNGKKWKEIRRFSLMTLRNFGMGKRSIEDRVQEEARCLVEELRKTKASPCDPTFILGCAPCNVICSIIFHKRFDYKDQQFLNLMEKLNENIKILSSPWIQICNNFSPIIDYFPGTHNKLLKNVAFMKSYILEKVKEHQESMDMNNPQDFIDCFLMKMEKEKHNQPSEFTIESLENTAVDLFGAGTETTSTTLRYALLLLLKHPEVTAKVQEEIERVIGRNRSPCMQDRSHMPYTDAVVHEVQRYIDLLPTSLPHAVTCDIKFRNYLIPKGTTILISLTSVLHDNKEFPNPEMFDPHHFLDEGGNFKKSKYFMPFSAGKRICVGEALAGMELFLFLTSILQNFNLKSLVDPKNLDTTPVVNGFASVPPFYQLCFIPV
IC50 (Cytochrome P450 3A4 [1]) [µM],IC50 [2] [µM],microsomal CLint at 1 µM [3] [µL/min/mg],SMILES,other results
,,257,COc1cccc(OC)c1[C@@H]1C[C@@H](C)C(=O)N1Cc1ccc(OC(F)(F)F)cc1 (racemic),
,6.94,,COc1cccc(OC)c1[C@@H]1C[C@@H](OC)C(=O)N1Cc1ccc(OC(F)(F)F)cc1 (racemic),
,,233,COc1cccc(OC)c1[C@@H]1C[C@H](F)C(=O)N1Cc1ccc(OC(F)(F)F)cc1 (racemic),Kp at 3 h [4]: 3.1; concentration at 3 h [5]: 270 ng/g; concentration at 3 h [6]: 87 ng/mL; fraction unbound at 3 h [7]: 0.01
6.6,0.041,277,COc1cccc(OC)c1[C@@H]1C[C@H](Cl)C(=O)N1Cc1ccc(OC(F)(F)F)cc1 (racemic),
5.2,,232,COc1cccc(OC)c1C1CC(F)(F)C(=O)N1Cc1ccc(OC(F)(F)F)cc1 (racemic),
,0.005,,COc1cccc(OC)c1[C@@H]1C[C@H](Cl)C(=O)N1Cc1ccc2oc3ccccc3c2c1 (racemic),
,0.563,,COc1cccc(OC)c1[C@@H]1C[C@@H](Cl)C(=O)N1Cc1ccc(OC(F)(F)F)cc1 (racemic),
,0.004,128,COc1cccc(OC)c1[C@@H]1C[C@@H](O)C(=O)N1Cc1ccc2oc3ccccc3c2c1 (racemic),
,9.49,,COc1cccc(OC)c1[C@@H]1C[C@H](N)C(=O)N1Cc1ccc(OC(F)(F)F)cc1 (racemic),IC50 (Orexin receptor type 2): 7.03 µM
,8.3,,COc1cccc(OC)c1[C@@H]1C[C@H](N(C)C)C(=O)N1Cc1ccc(OC(F)(F)F)cc1 (racemic),IC50 (Orexin receptor type 2): 8.72 µM
,> 10,,CCO[C@H]1C[C@@H](c2c(OC)cccc2OC)N(Cc2ccc(OC(F)(F)F)cc2)C1=O (racemic),IC50 (Orexin receptor type 2): 3.96 µM
25,,142,COc1cccc(OC)c1[C@@H]1C[C@@H](O)C(=O)N1Cc1ccc(OC(F)(F)F)cc1 (racemic),
,3.61,,CC[C@H]1C[C@@H](c2c(OC)cccc2OC)N(Cc2ccc(OC(F)(F)F)cc2)C1=O (racemic),

# Further lines, the molecule ahead of its results:
SMILES,IC50 (Cytochrome P450 3A4 [1]) [µM],IC50 [2] [µM],microsomal CLint at 1 µM [3] [µL/min/mg],other results
COc1cccc(OC)c1[C@@H]1C[C@H](OC)C(=O)N1Cc1ccc(OC(F)(F)F)cc1 (racemic),1.4,0.168,,
COc1cccc(OC)c1[C@@H]1C[C@H](C)C(=O)N1Cc1ccc(OC(F)(F)F)cc1 (racemic),8.7,,,
COc1cccc(OC)c1[C@@H]1C[C@H](F)C(=O)N1Cc1ccc2oc3ccccc3c2c1 (racemic),8.8,,363,
COc1cccc(OC)c1[C@@H]1C[C@@H](N)C(=O)N1Cc1ccc(OC(F)(F)F)cc1 (racemic),,2.05,,IC50 (Orexin receptor type 2): 1.98 µM
CN[C@H]1C[C@@H](c2c(OC)cccc2OC)N(Cc2ccc(OC(F)(F)F)cc2)C1=O (racemic),,> 10,,IC50 (Orexin receptor type 2): 5.78 µM
COc1cccc(F)c1[C@@H]1C[C@@H](O)C(=O)N1Cc1ccc2oc3ccccc3c2c1,> 50,,102,inhibition in vivo at 100 mg/kg (Rattus norvegicus [8]): 20%; IC50 (Cytochrome P450 2D6 [9]): 47 µM; Papp B→A (MDR1 [10]): 26.6 ×10⁻⁶ cm/s; Kp at 3 h [4]: 2.3; TDI (Cytochrome P450 3A4 [11]): Not Active; TDI (Cytochrome P450 2D6 [12]): Not Active; Papp A→B (MDR1 [13]): 12.5 ×10⁻⁶ cm/s; microsomal CLint at 1 µM [14]: > 1250 µL/min/mg; Activity (Rattus norvegicus [15]): 20%; Activity (Rattus norvegicus [16]): 34.4%; IC50 (Cytochrome P450 2C9 [17]): 9.4 µM; Activity (Rattus norvegicus [18]): 7.1%; inhibition in vivo at 100 mg/kg (Rattus norvegicus [19]): 35%; concentration at 3 h [5]: 585 ng/g; IC50 (Cytochrome P450 3A4 [20]): > 50 µM; TDI (Cytochrome P450 2C9 [21]): Not Active; Activity (Rattus norvegicus [22]): 39.2%; Activity (Rattus norvegicus [23]): 38%; Activity (Rattus norvegicus [24]): 19.2%
CN[C@@H]1C[C@@H](c2c(OC)cccc2OC)N(Cc2ccc(OC(F)(F)F)cc2)C1=O (racemic),,5.81,,IC50 (Orexin receptor type 2): 2.4 µM
COc1cccc(F)c1C1C[C@@H](O)C(=O)N1Cc1ccc2oc3ccccc3c2c1 (mixture of isomers),46,,96,
COc1cccc(F)c1[C@@H]1C[C@H](F)C(=O)N1Cc1ccc2oc3ccccc3c2c1 (racemic),21,,349,
COc1cccc(OC)c1[C@@H]1C[C@@H](N(C)C)C(=O)N1Cc1ccc(OC(F)(F)F)cc1 (racemic),,> 10,,IC50 (Orexin receptor type 2): 3.62 µM
COc1cccc(OC)c1C1CCC(=O)N1Cc1ccc2oc3ccccc3c2c1 (racemic),6.9,,577,
CNC(=O)[C@@H](c1ccccc1)N1CCc2cc(OC)c(OC)cc2[C@@H]1CCc1ccc(C(F)(F)F)cc1 [ALMOREXANT],,,,Activity (Rattus norvegicus [25]): 31%; Activity (Rattus norvegicus [26]): 24%; inhibition in vivo at 100 mg/kg (Rattus norvegicus [19]): 43%; Activity (Rattus norvegicus [27]): 6.5%; Activity (Rattus norvegicus [28]): 38.5%
